Assay results as given in the supplement of paper PMC11451515.

Test system: P12-Ichikawa
Assay: cell viability relative to DMSO control; higher = less cytotoxic
Conditions: 48 h
Method in brief: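 Viability is a per-plate percentage relative to DMSO wells, with cell-free wells as background. CellTiter-Glo One luminescence was read after 48 h at 37°C on 1536-well plates (5 μl) of NOMO1 or SEM (500 cells/well) or P12-Ichikawa (1000 cells/well) leukemia cells. The cells had been adapted for at least four passages in each medium and pin-dosed with library compounds in DMSO from 47 μM to 0.79 nM in 11 threefold steps.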

[1] = HPLM + 10% dialyzed FBS, 0.000781 µM
[2] = HPLM + 10% dialyzed FBS, 0.00234 µM
[3] = HPLM + 10% dialyzed FBS, 0.00702 µM
[4] = HPLM + 10% dialyzed FBS, 0.0211 µM
[5] = HPLM + 10% dialyzed FBS, 0.0632 µM
[6] = HPLM + 10% dialyzed FBS, 0.19 µM
[7] = HPLM + 10% dialyzed FBS, 0.569 µM
[8] = HPLM + 10% dialyzed FBS, 1.71 µM
[9] = HPLM + 10% dialyzed FBS, 5.12 µM
[10] = HPLM + 10% dialyzed FBS, 15.4 µM
[11] = HPLM + 10% dialyzed FBS, 46.1 µM
[12] = RPMI 5 mM glucose + 10% FBS, 0.000781 µM
[13] = RPMI 5 mM glucose + 10% FBS, 0.00234 µM
[14] = RPMI 5 mM glucose + 10% FBS, 0.00702 µM
[15] = RPMI 5 mM glucose + 10% FBS, 0.0211 µM
[16] = RPMI 5 mM glucose + 10% FBS, 0.0632 µM
[17] = RPMI 5 mM glucose + 10% FBS, 0.19 µM
[18] = RPMI 5 mM glucose + 10% FBS, 0.569 µM
[19] = RPMI 5 mM glucose + 10% FBS, 1.71 µM
[20] = RPMI 5 mM glucose + 10% FBS, 5.12 µM
[21] = RPMI 5 mM glucose + 10% FBS, 15.4 µM
[22] = RPMI 5 mM glucose + 10% FBS, 46.1 µM
[23] = RPMI 5 mM glucose + 10% dialyzed FBS, 0.000781 µM
[24] = RPMI 5 mM glucose + 10% dialyzed FBS, 0.00234 µM
[25] = RPMI 5 mM glucose + 10% dialyzed FBS, 0.00702 µM
[26] = RPMI 5 mM glucose + 10% dialyzed FBS, 0.0211 µM
[27] = RPMI 5 mM glucose + 10% dialyzed FBS, 0.0632 µM
[28] = RPMI 5 mM glucose + 10% dialyzed FBS, 0.19 µM
[29] = RPMI 5 mM glucose + 10% dialyzed FBS, 0.569 µM
[30] = RPMI 5 mM glucose + 10% dialyzed FBS, 1.71 µM
[31] = RPMI 5 mM glucose + 10% dialyzed FBS, 5.12 µM
[32] = RPMI 5 mM glucose + 10% dialyzed FBS, 15.4 µM
[33] = RPMI 5 mM glucose + 10% dialyzed FBS, 46.1 µM

SMILES	cell viability [1] [%]	cell viability [2] [%]	cell viability [3] [%]	cell viability [4] [%]	cell viability [5] [%]	cell viability [6] [%]	cell viability [7] [%]	cell viability [8] [%]	cell viability [9] [%]	cell viability [10] [%]	cell viability [11] [%]	cell viability [12] [%]	cell viability [13] [%]	cell viability [14] [%]	cell viability [15] [%]	cell viability [16] [%]	cell viability [17] [%]	cell viability [18] [%]	cell viability [19] [%]	cell viability [20] [%]	cell viability [21] [%]	cell viability [22] [%]	cell viability [23] [%]	cell viability [24] [%]	cell viability [25] [%]	cell viability [26] [%]	cell viability [27] [%]	cell viability [28] [%]	cell viability [29] [%]	cell viability [30] [%]	cell viability [31] [%]	cell viability [32] [%]	cell viability [33] [%]
C\C1=C(\C=C(\C#N)C(=O)N1)C2=CC=NC=C2	104	104	102	102	105	106	107	115	109	109	13.8	110	114	112	118	118	107	112	118	112	121	18.4	94.6	105	103	98.9	110	107	109	110	111	108	27.9
OC1=CC2=C(C(=C1)O)C(=O)\C=C(/O2)C3=CC=CC=C3	104	102	105	108	110	108	103	110	104	77.9	3.28	104	104	107	111	115	110	101	107	103	82.9	3.34	99.5	103	102	99.9	103	100	114	104	103	84.4	4.92
CCC[C@H]1C[C@H](C(=O)N[C@@H]([C@@H]2O[C@@H](SC)[C@@H](O)[C@@H](O)[C@H]2O)[C@H](C)Cl)N(C)C1	103	117	115	120	119	124	123	124	125	118	127	105	113	112	121	132	131	137	119	130	130	134	113	122	115	115	128	124	126	119	130	122	121
COC(=O)[C@@H]1[C@H]2C[C@H]3c4[nH]c5ccccc5c4CCN3C[C@@H]2CC[C@@H]1O	113	118	122	116	122	128	121	117	20.8	14.4	12.4	–	–	–	–	–	–	–	–	–	–	–	103	114	114	124	111	124	127	128	70.6	32.9	17.9
